Test results reported in patent publication US20210018841A1, “COMPOSITION FOR RESIST UNDERLAYER FILM FORMATION AND PATTERN FORMATION METHOD” (Mitsubishi Gas Chemical Company, Inc., priority 2018, published 2021).

Experiment: Solubility in a safe solvent (PGMEA)
Assay type: physicochemical
Details: ultrasonic waves at 23° C. for 30 minutes, visually observed
Protocol: The solubility of an obtained compound in a safe solvent (propylene glycol monomethyl ether acetate (PGMEA)) was evaluated as follows. The compound was precisely weighed in a test tube, and PGMEA was added to a predetermined concentration. Next, ultrasonic waves were applied at 23° C. for 30 minutes with an ultrasonic cleaning machine, and the subsequent state of the liquid was visually observed. The concentration (% by mass) at which the compound was completely dissolved was defined as the amount of dissolution. […] B: amount of dissolution was 3.0% by mass or more and 5.0% by mass or less. C: amount of dissolution was less than 3.0% by mass.

In the case of `CCO[Te](OCC)(OCC)OCC` [TOX-1, tetraethoxytellurium(IV)], the “Solubility of tellurium containing compound” value is reported as “A (amount of dissolution was 5.0% by mass or more)”.
